“Also recorded” adds a separate entry of the source. Read-outs that look alike come from different tables or passages of the source. Each block holds one molecule with its values, some of them ahead of it. Non-standard residues stand in square brackets, D forms with d. Residues, ends and D or L forms follow the SMILES beside them.
Experiments:
[1] = test system: transient middle cerebral artery occlusion (tMCAO); test: Rat transient middle cerebral artery occlusion model; conditions: rat tMCAO, comparison of the two peptides
Procedure: Nerinetide and lodoxamide was administered to rats intravenously as a bolus injection, 60 minutes after tMCAo. […] Bars in A and represent mean±SD, with all individual data points plotted. Asterisks in A indicate P<0.01 when compared to the vehicle group (one-way ANOVA post hoc Tukey's correction for multiple comparisons test) N=12-14 animals/group. […] Significant differences are indicated with an asterisk when compared to the vehicle group (Kruskal-Wallis analysis of variance on ranks with a post-hoc Dunn's correction for multiple comparisons test, *P<0.01). Vehicle: PBS alone. Scrambled: ADA peptide incapable of binding PSD-95.
All animals subjected to surgery had their physiological parameters measured prior to MCA occlusion. PE-50 polyethylene tubing was inserted into the right femoral artery for invasive monitoring of mean arterial blood pressure and for obtaining blood samples to measure blood gases (pH, PaO2, and PaCO2), electrolytes (Na^+, K^+, iCa) and plasma glucose at baseline [Blood gas cartridge CG8+, VetScan i-STAT 1 Analyzer].
Infarct volumes and hemispheric swelling were evaluated at 24 hours post-stroke from standard brain slices stained with 2% 2,3,5-triphenyltetrazolium chloride (Sigma Aldrich, St. Louis, Md., USA)(7). Neurologic scoring was conducted at 24 hours after stroke onset using forelimb-placing tests comprising of frontal visual placing, sideways visual placing, frontal tactile placing, sideways tactile placing, and vertical tactile placing (scores range from 0-2 in each component for a maximum of 12 indicating maximum impairment.

plasmin = plasmin (Homo sapiens, UniProt P00747)
Procedure: (A) LC/MS spectrum of nerinetide after incubation with plasmin in PBS. 10 uL aliquots of nerinetide (18 mg/mL) and plasmin (1 mg/mL) were incubated in 500 uL tubes of phosphate-buffered saline at 37 C for 5 min and the reaction stopped by cooling to −80 C until tested. […] (B, C) In-vitro effect of rt-PA on nerinetide content in rat (B) and human (C) plasma. Nerinetide was spiked into the plasma samples at t=0 at a concentration of 65 ug/ml, whereas alteplase (rt-PA) was administered as a 60 min infusion at the indicated concentration (D, E) In-vivo effect of the simultaneous administration of nerinetide and rt-PA on Cmax (D) and AUC (E) in the rat. The nerinetide bolus and alteplase (60 min infusion) were started simultaneously through two separate intravenous lines. Symbols represent mean±SD. […] […] (SEQ ID NO:3) (Full-length NA-1, undigested), […] […] (SEQ ID NO:8), […] […] (SEQ ID NO:10).
Direct ELISA of the indicated biotinylated peptides to the PDZ2 domain of PSD-95. […] Symbols indicate the mean±SD of triplicate experiments. […] (B). […] E,F. Time course of nerinetide or D-TAT-L-2B9c content in rat plasma (E) and human plasma (F) during a challenge with tenecteplase (TNK; 37.5 ug/ml or 6.25 ug/ml, respectively). […] (repeated measures two-way ANOVA with a post hoc Sidak's multiple comparisons test, *P<0.01). Symbols are means±SD. […]

PDZ2 domain of PSD-95 = PDZ2 domain of PSD-95 (Homo sapiens, UniProt P78352); test: Direct ELISA of biotinylated peptides to PSD-95 PDZ2; format: binding
Sequence of PDZ2 domain of PSD-95 (P78352 160-246 limits assumed): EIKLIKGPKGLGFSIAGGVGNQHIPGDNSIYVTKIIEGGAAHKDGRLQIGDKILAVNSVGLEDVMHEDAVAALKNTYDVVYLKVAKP
Procedure: ELISA plates were coated with 1 ug/ml PSD95PDZ2 in 50 mM bicarbonate buffer overnight at 4 C. The plate was blocked in 2%BSA in PBST (0.05%) for 2 h at room temperature. It was then incubated with biotinylated ligand (nerinetide, D-tat-L2B9c or D-Tat-L-AA) at the indicated concentrations (FIG. 4A) and incubated overnight at 4 C. After washing with PBS-T, the plate was incubated for 30 min with (1:3000) SA-HRP, washed again, and incubated with TMB solution for 10 min. The reaction was stopped with 100 ul H2504. Absorbance was determined at 450 nm with the synergy H1 reader.

[2] = In-vivo pharmacokinetic analysis in rats; conditions: rat, intravenous bolus 7.6 mg/kg
Procedure: Since the effect of nerinetide in the ESCAPE-NA1 trial was negated by alteplase, we next evaluated the effects of alteplase on pharmacokinetics (PK) of nerinetide in rats. Alteplase was administered at 0.9 mg/kg (human dose) and at 5.4 mg/kg (6 times the human dose) in an infusion that simulated the clinical protocol (10% bolus followed by a 60 min infusion of the remainder). Nerinetide was administered as an intravenous bolus at the start of the alteplase infusion at 7.6 mg/kg.
The goal of these study was to evaluate nerinetide PK parameter changes when in the presence of circulating rt-PA and plasmin. Male naïve rats received an intravenous administration of either nerinetide alone, nerinetide plus rt-PA (0.9 mg/kg) or nerinetide plus rt-PA (5.4 mg/kg). Sample collection was performed pre-dose and 0 min, 5 min, 10 min, 20 min, 50 min post-dose. At each time point, approximately 300 uL of blood was sampled from each animal using a fresh syringe. Blood samples were collected in previously prepared Eppendorf tubes [30 ul of EDTA 2.5%] and centrifuged for 20 minutes to separate plasma and cell components.
Plasma samples were stored at −80° C. until analyzed.
Changes in peptide concentration were analyzed using a two-way repeated measures ANOVA, followed by the Sidak correction for multiple comparisons. The pharmacokinetic (PK) parameters of peak plasma concentration (Cmax) and the area under the plasma concentration-time curve from 0 to last measured concentration (AUC) were obtained with PKsolver Software (USA) using a non-compartmental analysis and employing a linear interpolation. For stroke studies, differences between groups were tested using a One-way ANOVA with a Tukey's correction for multiple comparisons. […] Values for animals experiencing premature death due to any reason including subarachnoid hemorrhage or hemorrhagic transformation were imputed to reflect the worst neurological score and the maximum stroke volume achieved across all animals.

[3] = test system: embolic middle cerebral artery occlusion (eMCAO); test: Rat embolic middle cerebral artery occlusion model with alteplase reperfusion; format: in vivo, Sprague-Dawley rats
Procedure: To test this, male Sprague-Dawley rats (10-12 weeks old; 270-310 g; Charles River, Montreal, QC, Canada) were subjected to embolic middle cerebral artery occlusion (eMCAO), produced by the introduction of an autologous blood thrombus into the middle cerebral artery. Reperfusion was achieved by treatment with intravenous alteplase at a total dose of 5.4 mg/kg beginning at 90 minutes after ischemia onset. Alteplase was administered using the human injection protocol in which 10% of the total dose is given as a bolus, with the remainder 90% of the dose being given over a 60-minute infusion. […] This dose was chosen because in pilot studies, higher doses of alteplase (10× human dose) produced unacceptable mortality rates due to hemorrhagic conversions of strokes. Nerinetide was administered either 30 minutes prior to, or concurrently with, the start of the alteplase administration (FIG. 5A) at a dose of 7.6 mg/kg. […] Infarct volumes, hemispheric swelling and neurological scores were evaluated at 24 hours.
Male Sprague-Dawley rats were subjected to eMCAO as already described. Nerinetide (7.6 mg/kg) or D-Tat-L-2B9c (7.6 mg/kg) were given as bolus injections at 60 minutes. Alteplase (5.4 mg/kg over 60 min) was also started at 60 min after eMCAO, concurrently with the active agent that inhibits PSD-95. Neurological scoring, infarct volume, and hemispheric swelling were assessed at 24 hours (FIG. 8A).
The studies were designed to have 80% power to detect a 40% absolute difference between control and treatment groups at p=0.05. Animal randomization, drug allocation and treatment drug preparation were performed by a research associate not directly involved with surgical or outcome assessment. Nerinetide and D-Tat-L-2B9c were freshly prepared at a concentration of 7.6 mg/mL in 500 uL aliquots. Alteplase was prepared from lyophilized drug and, like matching placebo, stored in identical glass tubes. Drugs were kept at 4° C. until 10 minutes prior to use. The surgeon and the investigators responsible for the surgery, stroke volume measurement, behavioural assessment and statistical analysis were blinded to treatment allocation.

plasmin (1 mg/mL) = test: plasmin in PBS (phosphate-buffered saline); conditions: 37 C, up to 5 min
[4] = human plasma in the absence of alteplase; conditions: 37° C., up to 45 min
[5] = test system: rt-PA (alteplase) (135 ug/ml); test: PBS during a challenge with rt-PA (135 ug/ml); conditions: 37° C.
[6] = rat plasma in the absence of alteplase; conditions: Rat Sprague Dawley, 37° C., up to 45 min
[7] = cited from earlier work
plasmin (10 ug/mL) = test: PBS during a challenge with plasmin (10 ug/mL); conditions: 37° C.
[8] = test system: rt-PA (alteplase) 135 ug/ml; test: human plasma during a challenge with rt-PA (135 ug/ml); conditions: 37° C., up to 45 min
[9] = test system: tenecteplase (TNK) 6.25 ug/ml; test: human plasma during a challenge with tenecteplase (TNK; 6.25 ug/ml)
[10] = test system: tenecteplase (TNK) 37.5 ug/ml; test: rat plasma during a challenge with tenecteplase (TNK; 37.5 ug/ml); conditions: Rat Sprague Dawley
[11] = test system: rt-PA (alteplase) 135 ug/ml; test: rat plasma during a challenge with rt-PA (135 ug/ml); conditions: Rat Sprague Dawley, 37° C., up to 45 min

Molecule: CC[C@H](C)[C@H](NC(=O)[C@H](CO)NC(=O)[C@H](CO)NC(=O)[C@H](CC(C)C)NC(=O)[C@H](CCCCN)NC(=O)[C@@H](CCCNC(=N)N)NC(=O)[C@@H](CCCNC(=N)N)NC(=O)[C@@H](CCCNC(=N)N)NC(=O)[C@@H](CCC(N)=O)NC(=O)[C@@H](CCCNC(=N)N)NC(=O)[C@@H](CCCNC(=N)N)NC(=O)[C@@H](CCCCN)NC(=O)[C@@H](CCCCN)NC(=O)[C@@H](CCCNC(=N)N)NC(=O)CNC(=O)[C@H](N)Cc1ccc(O)cc1)C(=O)N[C@@H](CCC(=O)O)C(=O)N[C@@H](CO)C(=O)N[C@@H](CC(=O)O)C(=O)N[C@H](C(=O)O)C(C)C [D-Tat-L-2B9c, ygrkkrrqrrrKLSSIESDV SEQ ID NO:89] (H-[dY]G[dR][dK][dK][dR][dR][dQ][dR][dR][dR]KLSSIESDV-OH; C-terminus assumed)
reducing infarction volume, hemispheric swelling and improving neurological scores [1]: equally effective | stability alone in phosphate buffered saline (plasmin): stable | EC50 (PDZ2 domain of PSD-95): 151 nM | binding to PDZ2 domain of PSD95 in ELISA (PDZ2 domain of PSD-95): substantially similar binding as nerinetide | pharmacokinetic profile compared with nerinetide [2]: higher cmax and AUC | infarct volumes, hemispheric swelling and neurological scores ([3]; 7.6 mg/kg at 60 minutes after eMCAO, 24 hours): beneficial effect of D-Tat-L-2B9c was evident | effect on infarction volume in the absence of alteplase ([3]; 7.6 mg/kg bolus at 60 minutes after eMCAO): as effective as nerinetide alone | effect on infarction volume when given concurrently with alteplase ([3]; peptide 7.6 mg/kg and alteplase 5.4 mg/kg both at 60 min after eMCAO): this effect persisted

fragment found (plasmin (1 mg/mL)): RKLSSIESDV (SEQ ID NO:8), 5 min | not cleaved [4]: stable | not cleaved [6]: stable
Molecule: YGRKKRRQRRRKLSSIESDV
cleaved bond (plasmin (1 mg/mL)): K5-R, 5 min; also recorded: R6-R, 5 min; also recorded: R7-Q, 5 min; also recorded: R9-R, 5 min; also recorded: R11-K, 5 min; also recorded: K12-L, 5 min | not cleaved [5]: not affected by co-incubation with alteplase

Molecule: alteplase: a recombinant form of tPA; thrombolytic agent [reference compound]
half-life in human plasma ([7]; in vivo): about five | reduction of infarction volume ([3]; alteplase alone 5.4 mg/kg given at 60 min after eMCAO): 26% | reduction of infarction volume ([3]; alteplase alone 5.4 mg/kg given at 90 minutes after eMCAO): 18%

not cleaved (plasmin (10 ug/mL)): no significant degradation | not cleaved [4]: stable | not cleaved [6]: stable | not cleaved [9]: no rapid elimination on addition of TNK | not cleaved [10]: no rapid elimination on addition of TNK
Molecule: ygrkkrrqrrrKLSSIESDV
not cleaved [5]: not affected by co-incubation with alteplase | not cleaved [8]: no rapid degradation on addition of alteplase | not cleaved [11]: no rapid degradation on addition of alteplase

B1: Plasmin: serine protease generated from circulating plasminogen by tissue-plasminogen activators (protein, UniProt P00747 20-580; P00747 581-810, looked up)
Plasmin heavy chain A: EPLDDYVNTQGASLFSVTKKQLGAGSIEECAAKCEEDEEFTCRAFQYHSKEQQCVIMAENRKSSIIIRMRDVVLFEKKVYLSECKTGNGKNYRGTMSKTKNGITCQKWSSTSPHRPRFSPATHPSEGLEENYCRNPDNDPQGPWCYTTDPEKRYDYCDILECEEECMHCSGENYDGKISKTMSGLECQAWDSQSPHAHGYIPSKFPNKNLKKNYCRNPDRELRPWCFTTDPNKRWELCDIPRCTTPPPSSGPTYQCLKGTGENYRGNVAVTVSGHTCQHWSAQTPHTHNRTPENFPCKNLDENYCRNPDGKRAPWCHTTNSQVRWEYCKIPSCDSSPVSTEQLAPTAPPELTPVVQDCYHGDGQSYRGTSSTTTTGKKCQSWSSMTPHRHQKTPENYPNAGLTMNYCRNPDADKGPWCFTTDPSVRWEYCNLKKCSGTEASVVAPPPVVLLPDVETPSEEDCMFGNGKGYRGKRATTVTGTPCQDWAAQEPHRHSIFTPETNPRAGLEKNYCRNPDGDVGGPWCYTTNPRKLYDYCDVPQCAAPSFDCGKPQVEPKKCPGR
Plasmin light chain B: VVGGCVAHPHSWPWQVSLRTRFGMHFCGGTLISPEWVLTAAHCLEKSPRPSSYKVILGAHQEVNLEPHVQEIEVSRLFLEPTRKDIALLKLSSPAVITDKVIPACLPSPNYVVADRTECFITGWGETQGTFGAGLLKEAQLPVIENKVCNRYEFLNGRVQSTELCAGHLAGGTDSCQGDSGGPLVCFEKDKYILQGVTSWGLGCARPNKPGVYVRVSRFVTWIEGVMRNN
modifications: plasmin
half-life in human plasma ([7]; reported): 4 to 8 h

Source: patent US20230139826A1 (NONO INC., priority 2020, published 2023)
